Data taken from US8278268B2, “Combination therapy comprising glucose reabsorption inhibitors and PPAR modulators” (Ortho-McNeil Pharmaceutical, Inc., priority 2001, dated 2012).

Experiments:
[1] = tested on: db/db mice; assay: Example 4: plasma glucose AUC following an oral glucose challenge; assay type: in vivo
Description: (§1) To examine the effect of T-1095 in combination with a PPARγ agonist, male db/db mice (6 weeks of age/Jackson Labs, […]), a PPARγ agonist such as MCC-555 (3 mg/kg-30 mg/kg), T-1095 (3-100 mg/kg), or MCC-555 plus T-1095. Mice (n=8 animals/group) received the test compounds or vehicle by oral gavage in a volume of 10 ml/kg of body weight. Body weight was recorded on day 1, prior to dosing, and twice a week for the duration of the study. One hour after the final dose, mice were weighed and anesthetized with CO2/O2 (70:30). Mice were then bled by retro-orbital sinus puncture into 2 mL heparinized polypropylene tubes on ice. Mice were then fasted overnight and bled by tail-clip prior to receiving a glucose challenge (2 g/kg p.o). Blood was collected at 30, 60.120, and 180 minutes after the challenge. Animals were then sacrificed and epididymal fat pads, livers, and hearts were excised, weighed and frozen for histological examination. Plasma samples were then assayed for glucose, HbA1c, insulin, and triglycerides.

[2] = tested on: db/db mice; assay: Example 4: 32 day oral dosing of T-1095 +/− MCC-555 in db/db mice; assay type: in vivo; conditions: for % HbA1C +/− SEM / Body Weight Change (g) ± SEM / Glucose / Insulin / Liver Weight (g) ± SEM / TG / Heart Weight (g) ± SEM: 32 day oral dosing
Description: as §1
Livers and hearts were excised, weighed and frozen.

[3] = tested on: female db/db mice; assay: Example 2: 11 day oral dosing of T-1095 +/− rosiglitazone in db/db mice; assay type: in vivo
Description: Mice (n=8 animals/group) received the test compounds or vehicle by oral gavage in a volume of 10 ml/kg of body weight. Body weight was recorded on day 1, prior to dosing, and days 4, 8 and 11. Eighteen hours after the final dose, mice were weighed and anesthetized with CO2/O2 (70:30). Mice were then bled by retro-orbital sinus puncture into 2 mL heparinized polypropylene tubes on ice. Plasma samples were then assayed for glucose, insulin, and triglycerides using Trinder reagent (Sigma Diagnostics), Elisa (Alpco) and GPO-Trinder (Sigma Diagnostics), respectively. Livers and hearts were excised, weighed and frozen.
(§2) Livers were excised, weighed and frozen. […] Heart weight can be measured in an analogous manner.

[4] = tested on: female db/db mice; assay: Example 1: 11 day oral dosing of rosiglitazone +/− T-1095 in db/db mice; assay type: in vivo
Description: Mice (n=8 animals/group) received the test compounds or vehicle by oral gavage in a volume of 10 ml/kg of body weight. Body weight was recorded on day 1, prior to dosing, and days 4, 8 and 11. Eighteen hours after the final dose, mice were weighed and anesthetized with CO2/O2 (70:30). Mice were then bled by retro-orbital sinus puncture into 2 mL heparinized polypropylene tubes on ice.
Plasma samples were then assayed for glucose, insulin, and triglycerides using Trinder reagent (Sigma Diagnostics), Elisa (Alpco) and GPO-Trinder (Sigma Diagnostics), respectively.
as §2

[5] = tested on: diabetic rodent models (STZ-induced diabetic rat, yellow KK mice, db/db mice, Zucker Diabetic Fatty rats and GK rats); conditions: cited from earlier work

## O=C1NC(=O)C(Cc2ccc3cc(OCc4ccccc4F)ccc3c2)S1 (centres unmarked) [MCC-555, 5-((6-((2-fluorophenyl)methoxy)-2-naphthalenyl)methyl)-2,4-thiazolidinedione, reference compound]
[1]; 3 mpk MCC-555, 32 day oral dosing
  AUC glucose % of Vehicle ± SEM: 74.11 ± 7.38 % of Vehicle
[1]; 10 mpk MCC-555, 32 day oral dosing
  AUC glucose % of Vehicle ± SEM: 71.05 ± 8.37 % of Vehicle
[1]; 30 mpk MCC-555, 32 day oral dosing
  AUC glucose % of Vehicle ± SEM: 48.03 ± 4.37 % of Vehicle
[2]; 3 mpk MCC-555
  % HbA1C +/− SEM: 4.50 ± 0.17 %
  Body Weight Change (g) ± SEM: 9.14 ± 1.5 g
  Glucose: 201.3 ± 24 mg/dL
  Insulin: 31.7 ± 4.7 ng/dL
  Liver Weight (g) ± SEM: 2.36 ± 0.22 g
  TG: 90.20 ± 4.5 mg/dL
[2]; 10 mpk MCC-555
  % HbA1C +/− SEM: 4.10 ± 0.15 %
  Body Weight Change (g) ± SEM: 9.53 ± 0.9 g
  Glucose: 155.1 ± 22 mg/dL
  Heart Weight (g) ± SEM: 0.13 ± 0.01 g
  Insulin: 11.9 ± 1.4 ng/dL
  Liver Weight (g) ± SEM: 1.91 ± 0.17 g
  TG: 73.90 ± 5.4 mg/dL
[2]; 30 mpk MCC-555
  % HbA1C +/− SEM: 4.11 ± 0.14 %
  Body Weight Change (g) ± SEM: 8.0 ± 0.7 g
  Glucose: 111.5 ± 8.0 mg/dL
  Heart Weight (g) ± SEM: 0.12 ± 0.01 g
  Insulin: 5.40 ± 0.4 ng/dL
  Liver Weight (g) ± SEM: 1.68 ± 0.1 g
  TG: 55.30 ± 4.7 mg/dL
[2]; MCC-555 alone, in this study
  change in heart weight: did not produce a significant change in heart weight

## COC(=O)OCC1OC(Oc2cc(C)cc(O)c2C(=O)CCc2ccc3occc3c2)C(O)C(O)C1O (centres unmarked) [T-1095]
[3]; 3 mpk T-1095, mean
  Glucose: 286 mg/dL
  Insulin: **22.5 ng/ml
  TG: 263 mg/dL
[3]; 10 mpk T-1095, mean
  Glucose: **263 mg/dL
  Insulin: 30.1 ng/mL
  TG: 256 mg/dL
[3]; 30 mpk T-1095, mean
  Glucose: 370 mg/dL
  Insulin: 23.9 ng/mL
  TG: 315 mg/dL
[3]; 100 mpk T-1095, mean
  Glucose: **242 mg/dL
  Insulin: 49.1 ng/mL
  TG: **243 mg/dL
[3]; T-1095 3 mpk, −Rosi, mean
  Body Weight Change: 3.0 g
  Liver Weight: 1.63 g
[3]; T-1095 10 mpk, −Rosi, mean
  Body Weight Change: 4.3 g
  Liver Weight: 1.87 g
[3]; T-1095 30 mpk, −Rosi, mean
  Body Weight Change: 2.4 g
  Liver Weight: 1.75 g
[3]; T-1095 100 mpk, −Rosi, mean
  Body Weight Change: 2.3 g
  Liver Weight: 1.73 g
[4]; T1095 100 mpk, mean
  Body Weight Change: 3.96 g
  Liver Weight: 1.88 g
[4]; T-1095 100 mpk, mean
  Glucose: ***405.13 mg/dL
  Insulin: 93.88 ng/mL
  TG: 248.88 mg/dL
[1]; 3 mpk T-1095, 32 day oral dosing
  AUC glucose % of Vehicle ± SEM: 95.75 ± 8.45 % of Vehicle
[1]; 10 mpk T-1095, 32 day oral dosing
  AUC glucose % of Vehicle ± SEM: 76.6 ± 6.85 % of Vehicle
[1]; 30 mpk T-1095, 32 day oral dosing
  AUC glucose % of Vehicle ± SEM: 73.69 ± 5.7 % of Vehicle
[1]; 100 mpk T-1095, 32 day oral dosing
  AUC glucose % of Vehicle ± SEM: 49.1 ± 3.21 % of Vehicle
[5]; in vivo, liver
  pro-drug conversion: converted to its active form T-1095A in the liver
[5]; in vivo, po
  oral glucose tolerance test and hyperinsulinemic euglycemic clamp: improvement of glucose tolerance and the reduction of insulin resistance
[5]; in vivo
  adverse signs during treatment: no observed sign of adding weight, infection in the urinary tracts, electrolyte imbalance in plasma, changes in food intake, acute hypoglycemic shock nor pathological changes in the kidney
[5]; oral administration, rodent models of IDDM and NIDDM
  elevated blood glucose levels: suppress elevated blood glucose levels
[5]; treatment for 3 weeks to 6 months, diabetic rodent models
  fed and fasting blood glucose levels and HbA1c: reduced both fed and fasting blood glucose levels and HbA1c
[5]; yellow KK mice and other diabetic mice models
  hyperinsulinemia, hypertriglyceridemia, microalbuminuria: decrease in the hyperinsulinemia, hypertriglyceridemia, and the development of microalbuminuria
[2]; 3 mpk T-1095
  % HbA1C +/− SEM: 6.10 ± 0.16%
  Body Weight Change (g) ± SEM: -6.09 ± 1.9 g
  Glucose: 490.3 ± 36 mg/dL
  Heart Weight (g) ± SEM: 0.16 ± 0.02 g
  Insulin: 10.7 ± 2.2 ng/dL
  Liver Weight (g) ± SEM: 1.51 ± 0.1 g
  TG: 210.90 ± 24 mg/dL
[2]; 10 mpk T-1095
  % HbA1C +/− SEM: 6.00 ± 0.29%
  Body Weight Change (g) ± SEM: -0.99 ± 1.9 g
  Glucose: 413.1 ± 50 mg/dL
  Heart Weight (g) ± SEM: 0.13 ± 0.01 g
  Insulin: 11.4 ± 3.8 ng/dL
  Liver Weight (g) ± SEM: 1.58 ± 0.08 g
  TG: 178.10 ± 21 mg/dL
[2]; 30 mpk T-1095
  % HbA1C +/− SEM: 5.38 ± 0.23%
  Body Weight Change (g) ± SEM: -2.44 ± 4.3 g
  Glucose: 380.6 ± 40 mg/dL
  Heart Weight (g) ± SEM: 0.14 ± 0.01 g
  Insulin: 17.7 ± 5.1 ng/dL
  Liver Weight (g) ± SEM: 1.57 ± 0.09 g
  TG: 197.20 ± 26 mg/dL
[2]; 100 mpk T-1095
  % HbA1C +/− SEM: 4.96 ± 0.24 %
  Body Weight Change (g) ± SEM: -4.83 ± 2.9 g
  Glucose: 367.2 ± 42 mg/dL
  Heart Weight (g) ± SEM: 0.14 ± 0.01 g
  Insulin: 25.5 ± 6.2 ng/dL
  Liver Weight (g) ± SEM: 1.64 ± 0.11 g
  TG: 151.20 ± 17 mg/dL

## CN(CCOc1ccc(CC2SC(=O)NC2=O)cc1)c1ccccn1 (centres unmarked) [Rosi, 5-((4-(2-(methyl-2-pyridinylamino)ethoxy)phenyl)methyl)-2,4-thiazolidinedione]
[3]; Rosi 10 mpk, mean
  Body Weight Change: 3.9 g
  Glucose: **244 mg/dL
  Insulin: *7.4 ng/ml
  Liver Weight: 2.15 g
  TG: *192 mg/dL
[4]; 0.1 mpk Rosi, mean
  Glucose: ***388.13 mg/dL
  Insulin: 65.75 ng/mL
  TG: ***188.38 mg/dL
[4]; 1 mpk Rosi, mean
  Glucose: ***246.71 mg/dL
  Insulin: ***25.43 ng/ml
  TG: ***199.43 mg/dL
[4]; 10 mpk Rosi, mean
  Glucose: ***321.63 mg/dL
  Insulin: ***31.63 ng/ml
  TG: ***136.25 mg/dL
[4]; Rosi 0.1 mpk, −T1095, mean
  Body Weight Change: 4.34 g
  Liver Weight: 2.31 g
[4]; Rosi 1 mpk, −T1095, mean
  Body Weight Change: 2.60 g
  Liver Weight: 2.32 g
[4]; Rosi 10 mpk, −T1095, mean
  Body Weight Change: 4.76 g
  Liver Weight: 2.36 g
